Assay results taken from patent US12291518B2, “Thyroid hormone receptor agonists and use thereof” (Eccogene Inc., priority 2020, dated 2025).

How the values were obtained:
[1] = biological target: T1, THR beta-LBD (Homo sapiens, UniProt P10828); experiment: THR-β Coactivator Peptide Recruitment Assay (LanthaScreen TR-FRET); type: biochemical; details: TR-FRET coactivator recruitment, THR beta-LBD 0.5 nM; for EC50: read-out: THRβ EC50
T1 construct: THR beta-LBD (the final concentration is 0.5 nM) was added to the 384-well assay plate; purchased Invitrogen PV4686
T1 sequence (P10828 217-461 limits assumed): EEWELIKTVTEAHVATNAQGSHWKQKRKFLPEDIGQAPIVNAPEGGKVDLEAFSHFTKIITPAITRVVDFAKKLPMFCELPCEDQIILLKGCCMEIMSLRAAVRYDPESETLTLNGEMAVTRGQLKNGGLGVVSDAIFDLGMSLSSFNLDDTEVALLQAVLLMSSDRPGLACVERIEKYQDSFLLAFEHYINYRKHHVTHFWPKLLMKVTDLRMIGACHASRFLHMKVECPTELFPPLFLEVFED
Outline: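 Agonist-driven coactivator recruitment read as a 520/495 nm TR-FRET emission ratio after 2 h at room temperature. Final concentrations: THR beta-LBD 0.5 nM, fluorescein-SRC2-2 peptide 0.1 nM, terbium anti-GST antibody 2 nM. EC50 from four-parameter dose-response fitting.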

[2] = biological target: T2, THR alpha-LBD (Homo sapiens, UniProt P10827); experiment: THR-α Coactivator Peptide Recruitment Assay (LanthaScreen TR-FRET); type: biochemical; details: TR-FRET coactivator recruitment, THR alpha-LBD 0.25 nM; for EC50: read-out: THRα EC50
T2 construct: except that THR alpha-LBD of a final concentration 0.25 nM was used; purchased Invitrogen PV4687
Outline: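 TR-FRET coactivator recruitment with THR alpha-LBD at 0.25 nM final, Fluorescein-SRC2-2 peptide 0.1 nM and Tb-labeled anti-GST antibody 2 nM; 2 h incubation at room temperature. 520/495 nm emission ratio fitted to a four-parameter sigmoidal curve to give EC50.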

T2 sequence (P10827 163-410 isoform P10827-2 limits assumed, other chains not shown): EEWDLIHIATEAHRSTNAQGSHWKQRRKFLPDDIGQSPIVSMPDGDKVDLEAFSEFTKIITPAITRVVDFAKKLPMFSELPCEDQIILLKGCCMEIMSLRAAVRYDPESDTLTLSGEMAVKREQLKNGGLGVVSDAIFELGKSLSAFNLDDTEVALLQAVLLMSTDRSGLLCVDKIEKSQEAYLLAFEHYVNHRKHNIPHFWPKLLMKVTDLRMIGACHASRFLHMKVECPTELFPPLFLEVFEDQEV

THRβ Emax [1] | EC50 [1] | THRα Emax [2] | EC50 [2] | Compound
C (<75) | 20 to 100 nM | C (<40) | 200 to 1000 nM | CNS(=O)(=O)c1cc(Oc2c(Cl)cc(-n3nc(C(F)F)c(=O)[nH]c3=O)cc2Cl)ncc1OC [Compound 127, 2-(2,6-dichloro-4-(6-(difluoromethyl)-3,5-dioxo-4,5-dihydro-1,2,4-triazin-2(3H)-yl)phenoxy)-5-methoxy-N-methylpyridine-4-sulfonamide]
B (75~90) | < 2 nM | A (85~110) | 2 to 200 nM | O=c1[nH]c(=O)n(-c2cc(Cl)c(Oc3cc(S(=O)(=O)C4CC4)c(O)cn3)c(Cl)c2)nc1C(F)F [Compound 128, 2-[3,5-dichloro-4-[(4-cyclopropylsulfonyl-5-hydroxy-2-pyridyl)oxy]phenyl]-6-(difluoromethyl)-1,2,4-triazine-3,5-dione]
A (90~110) | 2 to 20 nM | B (40~85) | 2 to 200 nM | N#Cc1nn(-c2cc(Cl)c(Oc3cc(S(=O)(=O)C4CC4)c(O)cn3)c(Cl)c2)c(=O)[nH]c1=O [Compound 129, 2-(3,5-dichloro-4-((4-(cyclopropylsulfonyl)-5-hydroxypyridin-2-yl)oxy)phenyl)-3,5-dioxo-2,3,4,5-tetrahydro-1,2,4-triazine-6-carbonitrile]
B (75~90) | 2 to 20 nM | B (40~85) | 200 to 1000 nM | N#C[C@H]1C[C@H](NS(=O)(=O)c2cc(Oc3c(Cl)cc(-n4nc(C(F)F)c(=O)[nH]c4=O)cc3Cl)ncc2O)C1 [Compound 130, N-(3-cyanocyclobutyl)-2-[2,6-dichloro-4-[6-(difluoromethyl)-3,5-dioxo-1,2,4-triazin-2-yl]phenoxy]-5-hydroxy-pyridine-4-sulfonamide]
A (90~110) | < 2 nM | A (85~110) | 2 to 200 nM | O=c1[nH]c(=O)n(-c2cc(Cl)c(Oc3cc(S(=O)(=O)NC4CC4)c(O)cn3)c(Cl)c2)nc1C(F)F [Compound 131, N-cyclopropyl-2-(2,6-dichloro-4-(6-(difluoromethyl)-3,5-dioxo-4,5-dihydro-1,2,4-triazin-2(3H)-yl)phenoxy)-5-hydroxypyridine-4-sulfonamide]
A (90~110) | 2 to 20 nM | B (40~85) | 200 to 1000 nM | O=c1[nH]c(=O)n(-c2cc(Cl)c(Oc3cc(S(=O)(=O)N[C@H]4C[C@@H](O)C4)c(O)cn3)c(Cl)c2)nc1C(F)F [Compound 132, 2-(2,6-dichloro-4-(6-(difluoromethyl)-3,5-dioxo-4,5-dihydro-1,2,4-triazin-2(3H)-yl)phenoxy)-5-hydroxy-N-((1s,3s)-3-hydroxycyclobutyl)pyridine-4-sulfonamide]
B (75~90) | 20 to 100 nM | B (40~85) | > 1000 nM | O=c1[nH]c(=O)n(-c2cc(Cl)c(Oc3cc(S(=O)(=O)NC[C@H]4C[C@H](O)C4)c(O)cn3)c(Cl)c2)nc1C(F)F [Compound 133, 2-(2,6-dichloro-4-(6-(difluoromethyl)-3,5-dioxo-4,5-dihydro-1,2,4-triazin-2(3H)-yl)phenoxy)-5-hydroxy-N-(((1r,3r)-3-hydroxycyclobutyl)methyl)pyridine-4-sulfonamide]
B (75~90) | 20 to 100 nM | B (40~85) | > 1000 nM | O=c1[nH]c(=O)n(-c2cc(Cl)c(Oc3cc(S(=O)(=O)NC[C@H]4C[C@@H](O)C4)c(O)cn3)c(Cl)c2)nc1C(F)F [Compound 134, 2-(2,6-dichloro-4-(6-(difluoromethyl)-3,5-dioxo-4,5-dihydro-1,2,4-triazin-2(3H)-yl)phenoxy)-5-hydroxy-N-(((1s,3s)-3-hydroxycyclobutyl)methyl)pyridine-4-sulfonamide]
A (90~110) | 2 to 20 nM | A (85~110) | 2 to 200 nM | N#CC1(NS(=O)(=O)c2cc(Oc3c(Cl)cc(-n4nc(C(F)F)c(=O)[nH]c4=O)cc3Cl)ncc2O)CC1 [Compound 135, N-(1-cyanocyclopropyl)-2-(2,6-dichloro-4-(6-(difluoromethyl)-3,5-dioxo-4,5-dihydro-1,2,4-triazin-2(3H)-yl)phenoxy)-5-hydroxypyridine-4-sulfonamide]
B (75~90) | 2 to 20 nM | B (40~85) | 2 to 200 nM | O=c1[nH]c(=O)n(-c2cc(Cl)c(Oc3cc(S(=O)(=O)NC4CCOCC4)c(O)cn3)c(Cl)c2)nc1C(F)F [Compound 136, 2-(2,6-dichloro-4-(6-(difluoromethyl)-3,5-dioxo-4,5-dihydro-1,2,4-triazin-2(3H)-yl)phenoxy)-5-hydroxy-N-(tetrahydro-2H-pyran-4-yl)pyridine-4-sulfonamide]
C (<75) | 20 to 100 nM | B (40~85) | > 1000 nM | CC(C)(O)CNS(=O)(=O)c1cc(Oc2c(Cl)cc(-n3nc(C(F)F)c(=O)[nH]c3=O)cc2Cl)ncc1O [Compound 137, 2-(2,6-dichloro-4-(6-(difluoromethyl)-3,5-dioxo-4,5-dihydro-1,2,4-triazin-2(3H)-yl)phenoxy)-5-hydroxy-N-(2-hydroxy-2-methylpropyl)pyridine-4-sulfonamide]
C (<75) | > 100 nM | C (<40) | > 1000 nM | C[C@]1(O)C[C@@H](NS(=O)(=O)c2cc(Oc3c(Cl)cc(-n4nc(C(F)F)c(=O)[nH]c4=O)cc3Cl)ncc2O)C1 [Compound 138, 2-(2,6-dichloro-4-(6-(difluoromethyl)-3,5-dioxo-4,5-dihydro-1,2,4-triazin-2(3H)-yl)phenoxy)-5-hydroxy-N-((1s,3s)-3-hydroxy-3-methylcyclobutyl)pyridine-4-sulfonamide]
B (75~90) | 2 to 20 nM | B (40~85) | 200 to 1000 nM | CO[C@H]1C[C@H](NS(=O)(=O)c2cc(Oc3c(Cl)cc(-n4nc(C(F)F)c(=O)[nH]c4=O)cc3Cl)ncc2O)C1 [Compound 139, 2-(2,6-dichloro-4-(6-(difluoromethyl)-3,5-dioxo-4,5-dihydro-1,2,4-triazin-2(3H)-yl)phenoxy)-5-hydroxy-N-((1r,3r)-3-methoxycyclobutyl)pyridine-4-sulfonamide]
B (75~90) | 20 to 100 nM | B (40~85) | 200 to 1000 nM | CO[C@H]1C[C@@H](NS(=O)(=O)c2cc(Oc3c(Cl)cc(-n4nc(C(F)F)c(=O)[nH]c4=O)cc3Cl)ncc2O)C1 [Compound 140, 2-(2,6-dichloro-4-(6-(difluoromethyl)-3,5-dioxo-4,5-dihydro-1,2,4-triazin-2(3H)-yl)phenoxy)-5-hydroxy-N-((1s,3s)-3-methoxycyclobutyl)pyridine-4-sulfonamide]
B (75~90) | 2 to 20 nM | B (40~85) | 2 to 200 nM | O=c1[nH]c(=O)n(-c2cc(Cl)c(Oc3cc(S(=O)(=O)N4CC[C@@H](O)C4)c(O)cn3)c(Cl)c2)nc1C(F)F [Compound 141, (R)-2-(3,5-dichloro-4-((5-hydroxy-4-((3-hydroxypyrrolidin-1-yl)sulfonyl)pyridin-2-yl)oxy)phenyl)-6-(difluoromethyl)-1,2,4-triazine-3,5(2H,4H)-dione]
B (75~90) | 20 to 100 nM | B (40~85) | 200 to 1000 nM | O=c1[nH]c(=O)n(-c2cc(Cl)c(Oc3cc(S(=O)(=O)NC45CC(O)(C4)C5)c(O)cn3)c(Cl)c2)nc1C(F)F [Compound 142, 2-(2,6-dichloro-4-(6-(difluoromethyl)-3,5-dioxo-4,5-dihydro-1,2,4-triazin-2(3H)-yl)phenoxy)-5-hydroxy-N-(3-hydroxybicyclo[1.1.1]pentan-1-yl)pyridine-4-sulfonamide]
B (75~90) | 2 to 20 nM | B (40~85) | 200 to 1000 nM | O=c1[nH]c(=O)n(-c2cc(Cl)c(Oc3cc(S(=O)(=O)N[C@H]4CC[C@H](O)CC4)c(O)cn3)c(Cl)c2)nc1C(F)F [Compound 143, 2-(2,6-dichloro-4-(6-(difluoromethyl)-3,5-dioxo-4,5-dihydro-1,2,4-triazin-2(3H)-yl)phenoxy)-5-hydroxy-N-((1r,4r)-4-hydroxycyclohexyl)pyridine-4-sulfonamide]
C (<75) | 20 to 100 nM | C (<40) | > 1000 nM | O=c1[nH]c(=O)n(-c2cc(Cl)c(Oc3cc(S(=O)(=O)N[C@H]4CC[C@@H](O)CC4)c(O)cn3)c(Cl)c2)nc1C(F)F [Compound 144, 2-(2,6-dichloro-4-(6-(difluoromethyl)-3,5-dioxo-4,5-dihydro-1,2,4-triazin-2(3H)-yl)phenoxy)-5-hydroxy-N-((1s,4s)-4-hydroxycyclohexyl)pyridine-4-sulfonamide]
